In ChEMBL document CHEMBL1134987, “Novel spirocyclic pyrrolidones as P2/P1 mimetics in potent inhibitors of HIV-1 protease” (Bioorg Med Chem Lett, 2002) one finds Ki data, which are given here for six molecules.

This assay deals with Human immunodeficiency virus type 1 protease (Human immunodeficiency virus 1, UniProt Q72874). The experiment in a line: The compound was tested for its inhibition against HIV-1 protease.
In the case of `COc1ccc(S(=O)(=O)N(CC2CCCC2)C[C@@H](O)CN2C(=O)C3(CCCCC3)OC[C@@H]2Cc2ccccc2)cc1`, the Ki was 1.7 nM. `O=C(N[C@H]1c2ccccc2C[C@H]1O)[C@H](Cc1ccccc1)C[C@H](O)CN1C(=O)C2(CCCCC2)C[C@@H]1Cc1ccccc1` yielded a Ki of 50 nM. The molecule `NC(C(=O)[C@H](Cc1ccccc1)C[C@H](O)CN1C(=O)[C@@H](Cc2ccccc2)C[C@@H]1Cc1ccccc1)[C@H]1c2ccccc2C[C@H]1O` (stereo partly specified) gave a Ki of 0.05 nM.

`COc1ccc(S(=O)(=O)N(CC2CCCC2)C[C@@H](O)CN2C(=O)[C@@H](Cc3ccccc3)C[C@@H]2Cc2ccccc2)cc1` registered an inhibition constant Ki of 0.8 nM. Molecule `O=C(N[C@H]1c2ccccc2C[C@H]1O)[C@H](Cc1ccccc1)C[C@H](O)CN1C(=O)C2(CCOCC2)C[C@@H]1Cc1ccccc1` showed an inhibition constant (Ki) of 23 nM. With `O=C(N[C@H]1c2ccccc2C[C@H]1O)[C@H](Cc1ccccc1)C[C@H](O)CN1C(=O)C2(CCN(Cc3ccccc3)CC2)C[C@@H]1Cc1ccccc1`, the Ki is 2500 nM.

Broadly, the Ki is a dissociation constant, usually derived from enzyme kinetics or from competition with a known ligand.
